Assay results published in patent US8192962B2, “Processes for detecting toxic substances” (Daikin Industries, Ltd., priority 2001, dated 2012).

System: DNA repair protein genes
Assay: DNA chip mRNA expression in yeast, DNA repair protein genes (Table 3)
Assay type: cell-based, Saccharomyces cerevisiae S288C
Conditions: incubated two hours, concentrations as in the 1st table
Outline: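 Value is the scanned fluorescence intensity ratio of exposed versus chemical-free cells. Log-phase S288C yeast in YPD at 25° C. received one toxic substance for two hours, dosed to slow growth without killing; Cy3/Cy5-labeled cDNA from oligo-dT-purified mRNA was hybridized to a whole-genome chip at 65° C.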

S=C([S-])NCCNC(=S)[S-].[Zn+2] [(11), zinc N,N′-ethylenebis(dithiocarbamate)]
The level of expressed mRNA in the presence of chemical substance/The level of expressed mRNA in the absence of chemical substance (yeast gene YAL015C): 1.4
The level of expressed mRNA in the presence of chemical substance/The level of expressed mRNA in the absence of chemical substance (yeast gene YAR007C): 0.9
The level of expressed mRNA in the presence of chemical substance/The level of expressed mRNA in the absence of chemical substance (yeast gene YBL019W): 1.0
The level of expressed mRNA in the presence of chemical substance/The level of expressed mRNA in the absence of chemical substance (yeast gene YBR073W): 0.5
The level of expressed mRNA in the presence of chemical substance/The level of expressed mRNA in the absence of chemical substance (yeast gene YBR272C): 1.1
The level of expressed mRNA in the presence of chemical substance/The level of expressed mRNA in the absence of chemical substance (yeast gene YCR014C): 0.8
The level of expressed mRNA in the presence of chemical substance/The level of expressed mRNA in the absence of chemical substance (yeast gene YDL017W): 0.8
The level of expressed mRNA in the presence of chemical substance/The level of expressed mRNA in the absence of chemical substance (yeast gene YDL059C): 2.0
The level of expressed mRNA in the presence of chemical substance/The level of expressed mRNA in the absence of chemical substance (yeast gene YDL200C): 1.2
The level of expressed mRNA in the presence of chemical substance/The level of expressed mRNA in the absence of chemical substance (yeast gene YDR054C): 1.9
The level of expressed mRNA in the presence of chemical substance/The level of expressed mRNA in the absence of chemical substance (yeast gene YDR369C): 1.1
The level of expressed mRNA in the presence of chemical substance/The level of expressed mRNA in the absence of chemical substance (yeast gene YEL019C): 1.2
The level of expressed mRNA in the presence of chemical substance/The level of expressed mRNA in the absence of chemical substance (yeast gene YEL037C): 1.0
The level of expressed mRNA in the presence of chemical substance/The level of expressed mRNA in the absence of chemical substance (yeast gene YER162C): 0.5
The level of expressed mRNA in the presence of chemical substance/The level of expressed mRNA in the absence of chemical substance (yeast gene YFL014W): 5.0
The level of expressed mRNA in the presence of chemical substance/The level of expressed mRNA in the absence of chemical substance (yeast gene YGL058W): 0.8
The level of expressed mRNA in the presence of chemical substance/The level of expressed mRNA in the absence of chemical substance (yeast gene YGL091C): 2.1
The level of expressed mRNA in the presence of chemical substance/The level of expressed mRNA in the absence of chemical substance (yeast gene YGL127C): 1.0
The level of expressed mRNA in the presence of chemical substance/The level of expressed mRNA in the absence of chemical substance (yeast gene YGL163C): 0.4
The level of expressed mRNA in the presence of chemical substance/The level of expressed mRNA in the absence of chemical substance (yeast gene YGL249W): 0.6
The level of expressed mRNA in the presence of chemical substance/The level of expressed mRNA in the absence of chemical substance (yeast gene YGR180C): 1.0
The level of expressed mRNA in the presence of chemical substance/The level of expressed mRNA in the absence of chemical substance (yeast gene YGR231C): 1.6
The level of expressed mRNA in the presence of chemical substance/The level of expressed mRNA in the absence of chemical substance (yeast gene YGR258C): 0.3
The level of expressed mRNA in the presence of chemical substance/The level of expressed mRNA in the absence of chemical substance (yeast gene YHR164C): 0.6
The level of expressed mRNA in the presence of chemical substance/The level of expressed mRNA in the absence of chemical substance (yeast gene YIL036W): 1.2
The level of expressed mRNA in the presence of chemical substance/The level of expressed mRNA in the absence of chemical substance (yeast gene YIL072W): 1.8
The level of expressed mRNA in the presence of chemical substance/The level of expressed mRNA in the absence of chemical substance (yeast gene YIL143C): 1.5
The level of expressed mRNA in the presence of chemical substance/The level of expressed mRNA in the absence of chemical substance (yeast gene YIL153W): 1.0
The level of expressed mRNA in the presence of chemical substance/The level of expressed mRNA in the absence of chemical substance (yeast gene YIR002C): 0.8
The level of expressed mRNA in the presence of chemical substance/The level of expressed mRNA in the absence of chemical substance (yeast gene YJL026W): 1.3
The level of expressed mRNA in the presence of chemical substance/The level of expressed mRNA in the absence of chemical substance (yeast gene YJR046W): 0.6
The level of expressed mRNA in the presence of chemical substance/The level of expressed mRNA in the absence of chemical substance (yeast gene YJR052W): 1.1
The level of expressed mRNA in the presence of chemical substance/The level of expressed mRNA in the absence of chemical substance (yeast gene YKL145W): 1.8
The level of expressed mRNA in the presence of chemical substance/The level of expressed mRNA in the absence of chemical substance (yeast gene YLR103C): 0.9
The level of expressed mRNA in the presence of chemical substance/The level of expressed mRNA in the absence of chemical substance (yeast gene YLR233C): 0.8
The level of expressed mRNA in the presence of chemical substance/The level of expressed mRNA in the absence of chemical substance (yeast gene YLR288C): 1.4
The level of expressed mRNA in the presence of chemical substance/The level of expressed mRNA in the absence of chemical substance (yeast gene YML032C): 1.0
The level of expressed mRNA in the presence of chemical substance/The level of expressed mRNA in the absence of chemical substance (yeast gene YML058W): 3.3
The level of expressed mRNA in the presence of chemical substance/The level of expressed mRNA in the absence of chemical substance (yeast gene YMR035W): 1.5
The level of expressed mRNA in the presence of chemical substance/The level of expressed mRNA in the absence of chemical substance (yeast gene YMR072W): 1.9
The level of expressed mRNA in the presence of chemical substance/The level of expressed mRNA in the absence of chemical substance (yeast gene YMR096W): 1.5
The level of expressed mRNA in the presence of chemical substance/The level of expressed mRNA in the absence of chemical substance (yeast gene YMR284W): 1.1
The level of expressed mRNA in the presence of chemical substance/The level of expressed mRNA in the absence of chemical substance (yeast gene YNL213C): 1.5
The level of expressed mRNA in the presence of chemical substance/The level of expressed mRNA in the absence of chemical substance (yeast gene YNL250W): 1.0
The level of expressed mRNA in the presence of chemical substance/The level of expressed mRNA in the absence of chemical substance (yeast gene YNL261W): 0.8
The level of expressed mRNA in the presence of chemical substance/The level of expressed mRNA in the absence of chemical substance (yeast gene YNL312W): 1.4
The level of expressed mRNA in the presence of chemical substance/The level of expressed mRNA in the absence of chemical substance (yeast gene YOL043C): 1.2
The level of expressed mRNA in the presence of chemical substance/The level of expressed mRNA in the absence of chemical substance (yeast gene YOR005C): 1.2
The level of expressed mRNA in the presence of chemical substance/The level of expressed mRNA in the absence of chemical substance (yeast gene YOR386W): 1.4
The level of expressed mRNA in the presence of chemical substance/The level of expressed mRNA in the absence of chemical substance (yeast gene YPL022W): 0.8
The level of expressed mRNA in the presence of chemical substance/The level of expressed mRNA in the absence of chemical substance (yeast gene YPL164C): 1.1
The level of expressed mRNA in the presence of chemical substance/The level of expressed mRNA in the absence of chemical substance (yeast gene YPL194W): 0.9
The level of expressed mRNA in the presence of chemical substance/The level of expressed mRNA in the absence of chemical substance (yeast gene YPR025C): 0.9
